Patent US8053585B2, “Protecting group for carboxylic acids that can be photolyzed by visible light” (Cornell Research Foundation, Inc., priority 2006, dated 2011)

System: GluR6 glutamate receptor
Assay: Whole-cell current recording with cell-flow method, HEK 293 cells expressing GluR6
Assay type: cell-based
Details: 1 mM DECM, −60 mV, pH 7.4, 22° C.
Excerpt: In whole-cell current recording experiments with DECM-caged glutamate, HEK 293 cells stably transfected with cDNA encoding the GluR6 were used. In whole-cell current recording experiments with DECM-caged glycine, HEK 293 cells were transiently transfected with the cDNA of the α1-subunit of the human glycine receptor by using the Polyfect™ transfection reagent (Qiagen GmbH, D-40724, Hilden, Germany). The cDNA of the α1-subunit was kindly provided by Professor H. Betz (Max-Plank-Institute for brain Research, Frankfurt, Germany). The cells were co-transfected with cDNA encoding the green fluorescent protein (pGreen Lantern plasmid, Life Technologies, Gaitherberg, Md.) to detect transfected cells (Chalfie et al., “Green Fluorescent Protein as a Marker for Gene Expression,” Science 263:802-805 (1994), which is hereby incorporated by reference in its entirety).
The cells were used for electrophysiological experiments between 24 and 72 h after each passage. Whole-cell currents evoked by glutamate or glycine (100 μM) were recorded using the whole-cell configuration (Hamill et al., “Improved Patch-Clamp Techniques for High-Resolution Current Recording From Cells and Cell-Free Membrane Patches,” Pfluegers Arch 391:85-100 (1981), which is hereby incorporated by reference in its entirety) at room temperature, −60 mV, and pH 7.4. The experiments using DECM-caged glutamate were carried out in the absence or presence of 2 mM DECM-caged glutamate (FIG. 5A) or 1 mM 7-N,N-diethylamino-4-hydroxymethylcoumarin (2) (FIG. 5B). Alternatively, the experiments using DECM-caged glycine were carried out in the absence or presence of 1 mM DECM-caged-glycine (FIG. 10). The solution in the recording pipet contained 120 mM CsCl, 10 mM EGTA, and 10 mM HEPES, adjusted to pH 7.4. The HEK cell bath solution contained 150 mM NaCl, 1 mM CaCl2, 10 mM HEPES, pH 7.4. The resistance of the recording electrode filled with buffer solution was typically 3-5 MΩ and the series resistance was 5-6 MΩ. The cells were held at a constant transmembrane voltage of −60 mV and room temperature (22° C.). […]

CCN(CC)c1ccc2c(CO)cc(=O)oc2c1 [DECM, 7-N,N-Diethylamino-4-hydroxymethylcoumarin]
whole-cell current evoked by 100 μM glutamate, presence vs absence of compound: do not inhibit
